Measured values published in ChEMBL document CHEMBL4414549 (J Med Chem, 2019).

Assays:
[1] = in vivo; details: Sprague-Dawley, rat, po, 5 mg/kg
[2] = in vivo; details: Sprague-Dawley, rat, iv, 1 mg/kg
[3] = in vivo; details: Sprague-Dawley, rat, po, 5 mg/kg; remark: listed apart in the source
[4] = in vivo; details: Sprague-Dawley, rat, po, 5 mg/kg; remark: listed apart in the source
[5] = in vivo; details: Sprague-Dawley, rat, iv, 1 mg/kg; remark: listed apart in the source
[6] = in vivo; details: Sprague-Dawley, rat, iv, 1 mg/kg; remark: listed apart in the source
[7] = in vivo; details: Sprague-Dawley, rat, po, 5 mg/kg; remark: listed apart in the source
[8] = Oral bioavailability in human in fasting state at 560 mg administered daily; assay type: ADME, organism-based; details: in vivo
[9] = Oral bioavailability in human in fed state at 560 mg administered daily; assay type: ADME, organism-based; details: in vivo
[10] = Plasma concentration in ICR mouse at 0.7 mg/kg, po administered as single dose measured at 0.5 hrs by LC-MS/MS analysis; assay type: ADME, organism-based
[11] = Plasma concentration in ICR mouse at 2.9 mg/kg, po administered as single dose measured at 0.5 hrs by LC-MS/MS analysis; assay type: ADME, organism-based
[12] = Plasma concentration in ICR mouse at 8.9 mg/kg, po administered as single dose measured at 0.5 hrs by LC-MS/MS analysis; assay type: ADME, organism-based
[13] = Plasma concentration in ICR mouse at 17.7 mg/kg, po administered as single dose measured at 0.5 hrs by LC-MS/MS analysis; assay type: ADME, organism-based
[14] = Plasma concentration in ICR mouse at 14.5 mg/kg, po administered as single dose measured at 2 hrs by LC-MS/MS analysis; assay type: ADME, organism-based
[15] = Plasma concentration in ICR mouse at […], po administered as single dose measured at 0.5 hrs by LC-MS/MS analysis; assay type: ADME, organism-based
[16] = Cmax in ICR mouse plasma at 14.5 mg/kg, po administered as single dose by LC-MS/MS analysis; assay type: ADME, organism-based; set-up: dose 14.5 mg/kg, route oral
[17] = Plasma concentration in ICR mouse at 14.5 mg/kg, po administered as single dose measured at 4 hrs by LC-MS/MS analysis; assay type: ADME, organism-based
[18] = Plasma concentration in ICR mouse at 2.2 mg/kg, po administered as single dose measured at 0.5 hrs by LC-MS/MS analysis; assay type: ADME, organism-based
[19] = Plasma concentration in ICR mouse at 4.4 mg/kg, po administered as single dose measured at 0.5 hrs by LC-MS/MS analysis; assay type: ADME, organism-based
[20] = Plasma concentration in ICR mouse at 1.4 mg/kg, po administered as single dose measured at 0.5 hrs by LC-MS/MS analysis; assay type: ADME, organism-based

Compound | Cmax [1] | Vd [2] | AUC [3] | bioavailability [4] | half-life [5] | clearance [6] | Tmax [7] | concentration at 0.5 h [10] | concentration at 0.5 h [11] | concentration at 0.5 h [12] | concentration at 0.5 h [13] | concentration at 2 h [14] | concentration at 0.5 h [15] | Cmax [16] | concentration at 4 h [17] | concentration at 0.5 h [18] | concentration at 0.5 h [19] | concentration at 0.5 h [20] | bioavailability [8] | bioavailability [9]
C=CC(=O)NCC1CCNc2c(C(N)=O)c(-c3ccc(Oc4ccccc4)cc3)nn21 (stereo not given) | 19.6 ng/mL | 1.19 L/kg | 51.1 ng·h/mL | 5.7% | 12.6 min | 93.9 mL/min/kg | 19.8 min |  |  |  |  |  |  |  |  |  |  |  |  | 
C=CC(=O)N1CCC[C@@H](n2nc(-c3ccc(Oc4ccccc4)cc3)c3c(N)ncnc32)C1 [IBRUTINIB] |  |  |  |  |  |  |  |  |  |  |  |  |  |  |  |  |  |  | 3.9% | 8.4%
C=CC(=O)Nc1ccccc1C1CCNc2c(C(N)=O)c(-c3ccc(OCC4CC4)cc3)nn21 (stereo not given) | 202 ng/mL | 1.01 L/kg | 344 ng·h/mL | 34% | 24 min | 82.3 mL/min/kg | 19.8 min |  |  |  |  |  |  |  |  |  |  |  |  | 

Second part, led by results:

Cmax [1] | Vd [2] | AUC [3] | bioavailability [4] | half-life [5] | clearance [6] | Tmax [7] | concentration at 0.5 h [10] | concentration at 0.5 h [11] | concentration at 0.5 h [12] | concentration at 0.5 h [13] | concentration at 2 h [14] | concentration at 0.5 h [15] | Cmax [16] | concentration at 4 h [17] | concentration at 0.5 h [18] | concentration at 0.5 h [19] | concentration at 0.5 h [20] | Compound | bioavailability [8] | bioavailability [9]
235 ng/mL | 2.32 L/kg | 257 ng·h/mL | 23.6% |  | 76.8 mL/min/kg | 19.8 min | 40 nM | 320 nM | 350 nM | 500 nM | 470 nM | 590 nM | 4800 nM | 90 nM | 70 nM | 180 nM | 110 nM | C=CC(=O)N1CCC([C@@H]2CCNc3c(C(N)=O)c(-c4ccc(Oc5ccccc5)cc4)nn32)CC1 [ZANUBRUTINIB] |  | 
10.4 ng/mL | 2.85 L/kg | 50.3 ng·h/mL | 8.6% | 15.6 min | 169 mL/min/kg | 140 min |  |  |  |  |  |  |  |  |  |  |  | C=CC(=O)N1CC(C2CCNc3c(C(N)=O)c(-c4ccc(Oc5ccccc5)cc4)nn32)C1 (stereo not given) |  | 
